Measurements taken from patent publication US7501398B2, “Inhibitor of the folding of the HIV-1-protease as antiviral agent” (priority 2005, dated 2009).

Columns and labels:
HIV-1-Protease [1] = target: T1, HIV-1-Protease (Human immunodeficiency virus type 1 group M subtype B, UniProt P04585, C555A/C583A/L521I/L551I/Q495K); assay: biochemical; type: biochemical; set-up: Recombinant HIV-1-Protease, expressed in E. Coli; purchased Sigma P7338; host or cells: E. coli; conditions: for Ki: pH 6, 37 °C; for variation in the kinetic parameters with respect to the uninhibited case: control peptides used in the same way as p-S8
Protocol: Recombinant HIV-1-Protease, expressed in E. Coli (Sigma Cat. no. P7338)contained five mutations to restrict autoproteolysis (Q7K, L33I, […]) and to restrict cysteine thiol oxidation (C67A and C95A). The enzyme was stored at (−70° C. as solution with concentration 25 mg/63 mL in dilute HCl, (pH=1.6)). A chromogenic substrate for HIV-1-PR (Sigma Cat. no. H5535) was obtained as a 1 mg desiccate, diluted with 0.1 ml of DMSO, and stored at −20° C. Protease assisted cleavage between the Nle and the Phe(NO2) residues of substrate entails a blue-shift of the absorption maximum (277 nm to 272 nm). It can be adequately monitored observing the continuous decrease of absorbance at […]. […] Res. Comm 168:274-280.
After that 1 mg of inhibitor peptide was dissolved in […] of DMSO, 4 ml of this solution were then diluted with 16 ml of DMSO and 180 ml of the buffer used for assay.
The buffer was prepared by adding […] NaCl, 1 mM EDTA and 1 mM dithiothreitol to a 20 mM phosphate buffer (pH 6).
The sequences of these control peptides are […] (SEQ ID NO:2) and […] (SEQ ID NO:3) corresponding to fragments 61-70 and 9-19, respectively, of the HIV-1-PR sequence, as well as the […] (SEQ ID NO:4) sequence, which is not related in any way to the protease.
Each measure was performed recording the absorbance at 300 nm (4.13 eV) in a standard UV-vis spectrophotometer (Jasco V-560). […] The sample in the cuvette was exposed to a constant temperature (37±0.05° C.) provided by continuous circulation of water from a water bath to the cell holder via a circulation pump.
After proper thermal stabilization of the substrate dissolved in the buffer (pH 6), the absorbance at 300 nm was recorded. We performed 6 measures spanning a range of substrate concentrations from 50 μM to 250 μM. The reaction was initiated by adding 2.78 μg of enzyme and recording the absorbance decrease at 300 nm for 1200 sec. In all the reported measures the enzyme has thus a nominal concentration of 1.8 μM. Since, to our knowledge, no accurate measure has been published of the dimerization constant of HIV-1-PR at pH=6.0, it is difficult to estimate precisely the active site concentration in our assay.
In all the reported measures the final concentration of inhibitor was [I0]=[…]. The Absorbance decrease at 300 nm was recorded for 1200 sec.

HIV-1-Protease [2] = target: T1, HIV-1-Protease; conditions: protease:peptide 1:3; protease alone 79%
Protocol: Ultraviolet CD spectra were recorded on a Jasco J-810 spectropolarimeter in nitrogen atmosphere at room temperature using 0.1 cm path-length quartz cell. Each spectrum was recorded between 260-200 nm. The data were collected at a rate of 10 nm/min with a wavelength step of 0.2 nm and a time constant of 2 s. The spectra were corrected with respect to the baseline and normalized to the aminoacidic concentration. The protein and the peptide were dissolved in a 20 mM phosphate buffer with 0.8 M NaCl at the same concentration used for the activity assays. The CD spectra were analyzed in terms of contribution of secondary structure elements using the K2D method based on comparison with CD spectra of proteins and peptides with known secondary structure.
The conformational properties of the inhibited protease have been investigated by means of UV circular dichroism experiments.

[3] = enzyme:peptide 1:3, pH 6, 37 °C

Compound | inhibition mechanism (HIV-1-Protease [1]) | Ki (HIV-1-Protease [1]; dissociation constant KI (inhibitor-free enzyme)) [nM] | Ki (HIV-1-Protease [1]; dissociation constant K′I (inhibitor-substrate-enzyme complex)) [nM] | apparent dissociation constant K′M of the inhibited reaction (HIV-1-Protease [1]; [3]) [mM] | maximum velocity vmax of the inhibited reaction (HIV-1-Protease [1]; [3]) [mM/s] | beta-sheet content of protease plus peptide (CD) (HIV-1-Protease [2]) [%] | variation in the kinetic parameters with respect to the uninhibited case (HIV-1-Protease [1]) | initial velocity v0 of the reaction in presence of peptide (HIV-1-Protease [1]; [S0]=125 mM (FIG. 7(b))) [µM/s]
CC[C@H](C)[C@H](NC(=O)[C@H](CCC(N)=O)NC(=O)[C@@H](NC(=O)[C@H](CC(C)C)NC(=O)[C@H](CC(C)C)NC(=O)[C@H](CC(N)=O)NC(=O)[C@H](CCCNC(=N)N)NC(=O)CNC(=O)[C@@H](NC(=O)[C@@H](NC(=O)[C@H](CC(N)=O)NC(C)=O)[C@@H](C)CC)[C@@H](C)CC)[C@@H](C)O)C(N)=O [p-S8, 83N, 84I, 85I, 86G, 87R, 88N, 89L, 90L, 91T, 92Q, 93I] | non-competitive | 380 ± 810 | 180 ± 234 | 332 ± 191 | 0.026 ± 0.011 | 45 | – | –
LSQETFDLWKLLPEN (Designed Peptide) [K3, reference compound] | – | – | – | – | – | – | no appreciable variation | –
QILIEICGHK (Fragment 61-70 of the HIV-1-PR sequence) [K1, reference compound] | – | – | – | – | – | – | no appreciable variation | 0.051
